Test results published in patent US8633200B2, “Inhibitors of human immunodeficiency virus replication” (priority 2010, dated 2014).
Counter-ions that a name gives are not always drawn. Like-named read-outs stand apart in the source and are kept apart here.

Tested on: recombinant NL-Rluc virus (NL4-3 with Renilla Luciferase gene) in MT-2 cells
Assay: Inhibition of HIV replication (NL-Rluc luciferase reporter virus, MT-2 cells)
Format: cell-based, human immunodeficiency virus (HIV)
Details: NL43, 120 h

Row | SMILES | EC50 (read-out: Activity) | EC50 (read-out: EC50 μM)
1 | COc1ccc(-c2cc3nc(C)c(C(OC(C)(C)C)C(=O)O)c(-c4cc(F)c5c(c4C)CCCO5)n3n2)cc1 (centres unmarked) [Example 92, 2-tert-Butoxy-2-(7-(8-fluoro-5-methylchroman-6-yl)-2-(4-methoxyphenyl)-5-methylpyrazolo[1,5-a]pyrimidin-6-yl)acetic acid, TFA salt] | 0.1 to 1 µM | –
2 | Cc1nc2cc(-c3cccc(OCc4ccccc4)c3)nn2c(-c2cc(F)c3c(c2C)CCCO3)c1C(OC(C)(C)C)C(=O)O (centres unmarked) [Example 93, 2-(2-(3-(Benzyloxy)phenyl)-7-(8-fluoro-5-methylchroman-6-yl)-5-methylpyrazolo[1,5-a]pyrimidin-6-yl)-2-tert-butoxyacetic acid, TFA salt] | < 0.1 µM | 0.1 µM
3 | Cc1nc2cc(-c3cccc(OCc4ccccc4)c3)nn2c(-c2cc(F)c3c(c2C)CCCO3)c1[C@H](OC(C)(C)C)C(=O)O [Example 94, (2S)-2-(2-(3-(Benzyloxy)phenyl)-7-(8-fluoro-5-methylchroman-6-yl)-5-methyl-pyrazolo[1,5-a]pyrimidin-6-yl)-2-tert-butoxyacetic acid] | < 0.1 µM | –
4 | Cc1nc2cc(-c3ccc(OCc4ccccc4)cc3)nn2c(-c2cc(F)c3c(c2C)CCCO3)c1C(OC(C)(C)C)C(=O)O (centres unmarked) [Example 95, 2-(2-(4-(Benzyloxy)phenyl)-7-(8-fluoro-5-methylchroman-6-yl)-5-methylpyrazolo[1,5-a]pyrimidin-6-yl)-2-tert-butoxyacetic acid, TFA salt] | < 0.1 µM | –
5 | Cc1nc2cc(-c3ccc(Cl)cc3)nn2c(-c2cc(F)c3c(c2C)CCCO3)c1C(OC(C)(C)C)C(=O)O (centres unmarked) [Example 96, 2-tert-Butoxy-2-(2-(4-chlorophenyl)-7-(8-fluoro-5-methylchroman-6-yl)-5-methylpyrazolo[1,5-a]pyrimidin-6-yl)acetic acid, TFA salt] | 0.1 to 1 µM | –
6 | Cc1nc2cc(-c3cccc(Oc4ccccc4)c3)nn2c(-c2cc(F)c3c(c2C)CCCO3)c1C(OC(C)(C)C)C(=O)O (centres unmarked) [Example 97, 2-tert-Butoxy-2-(7-(8-fluoro-5-methylchroman-6-yl)-5-methyl-2-(3-phenoxyphenyl)pyrazolo[1,5-a]pyrimidin-6-yl)acetic acid, TFA salt] | < 0.1 µM | 0.06 µM
7 | Cc1ccccc1-c1cc2nc(C)c(C(OC(C)(C)C)C(=O)O)c(-c3cc(F)c4c(c3C)CCCO4)n2n1 (centres unmarked) [Example 98, 2-tert-Butoxy-2-(7-(8-fluoro-5-methylchroman-6-yl)-5-methyl-2-o-tolylpyrazolo[1,5-a]pyrimidin-6-yl)acetic acid, TFA salt] | > 1 µM | –
8 | COc1cccc(-c2cc3nc(C)c(C(OC(C)(C)C)C(=O)O)c(-c4cc(F)c5c(c4C)CCCO5)n3n2)c1 (centres unmarked) [Example 99, 2-tert-Butoxy-2-(7-(8-fluoro-5-methylchroman-6-yl)-2-(3-methoxyphenyl)-5-methylpyrazolo[1,5-a]pyrimidin-6-yl)acetic acid] | 0.1 to 1 µM | 0.35 µM
9 | CCc1ccc(-c2cc3nc(C)c(C(OC(C)(C)C)C(=O)O)c(-c4cc(F)c5c(c4C)CCCO5)n3n2)cc1 (centres unmarked) [Example 100, 2-tert-Butoxy-2-(2-(4-ethylphenyl)-7-(8-fluoro-5-methylchroman-6-yl)-5-methylpyrazolo[1,5-a]pyrimidin-6-yl)acetic acid, TFA salt] | 0.1 to 1 µM | –
10 | Cc1nc2cc(-c3cccc(OCc4ccc(F)cc4)c3)nn2c(-c2cc(F)c3c(c2C)CCCO3)c1C(OC(C)(C)C)C(=O)O (centres unmarked) [Example 101, 2-tert-Butoxy-2-(7-(8-fluoro-5-methylchroman-6-yl)-2-(3-(4-fluorobenzyloxy)phenyl)-5-methylpyrazolo[1,5-a]pyrimidin-6-yl)acetic acid, TFA salt] | < 0.1 µM | –
11 | Cc1nc2cc(-c3cccc(OCc4ccccc4Cl)c3)nn2c(-c2cc(F)c3c(c2C)CCCO3)c1C(OC(C)(C)C)C(=O)O (centres unmarked) [Example 102, 2-tert-Butoxy-2-(2-(3-(2-chlorobenzyloxy)phenyl)-7-(8-fluoro-5-methylchroman-6-yl)-5-methylpyrazolo[1,5-a]pyrimidin-6-yl)acetic acid, TFA salt] | < 0.1 µM | –
12 | COc1ccc(COc2cccc(-c3cc4nc(C)c(C(OC(C)(C)C)C(=O)O)c(-c5cc(F)c6c(c5C)CCCO6)n4n3)c2)cc1 (centres unmarked) [Example 103, 2-tert-Butoxy-2-(7-(8-fluoro-5-methylchroman-6-yl)-2-(3-(4-methoxybenzyloxy)phenyl)-5-methylpyrazolo[1,5-a]pyrimidin-6-yl)acetic acid, TFA salt] | < 0.1 µM | –
13 | Cc1nc2cc(-c3cccc(OCc4cccc(Cl)c4)c3)nn2c(-c2cc(F)c3c(c2C)CCCO3)c1C(OC(C)(C)C)C(=O)O (centres unmarked) [Example 104, 2-tert-Butoxy-2-(2-(3-(3-chlorobenzyloxy)phenyl)-7-(8-fluoro-5-methylchroman-6-yl)-5-methylpyrazolo[1,5-a]pyrimidin-6-yl)acetic acid, TFA salt] | < 0.1 µM | –
14 | Cc1ccc(-c2cc3nc(C)c(C(OC(C)(C)C)C(=O)O)c(-c4cc(F)c5c(c4C)CCCO5)n3n2)cc1OCc1ccccc1 (centres unmarked) [Example 105, 2-(2-(3-(Benzyloxy)-4-methylphenyl)-7-(8-fluoro-5-methylchroman-6-yl)-5-methylpyrazolo[1,5-a]pyrimidin-6-yl)-2-tert-butoxyacetic acid] | < 0.1 µM | –
15 | Cc1nc2cc(-c3cccc(OCc4ccc(Cl)cc4)c3)nn2c(-c2cc(F)c3c(c2C)CCCO3)c1C(OC(C)(C)C)C(=O)O (centres unmarked) [Example 106, 2-tert-Butoxy-2-(2-(3-(4-chlorobenzyloxy)phenyl)-7-(8-fluoro-5-methylchroman-6-yl)-5-methylpyrazolo[1,5-a]pyrimidin-6-yl)acetic acid, TFA salt] | < 0.1 µM | 0.04 µM
16 | Cc1nc2cc(-c3ccnc(OCc4ccccc4)c3)nn2c(-c2cc(F)c3c(c2C)CCCO3)c1C(OC(C)(C)C)C(=O)O (centres unmarked) [Example 107, 2-(2-(2-(Benzyloxy)pyridin-4-yl)-7-(8-fluoro-5-methylchroman-6-yl)-5-methylpyrazolo[1,5-a]pyrimidin-6-yl)-2-tert-butoxyacetic acid, TFA salt] | < 0.1 µM | 0.008 µM
17 | Cc1nc2cc(-c3ccc(OCc4ccccc4)nc3)nn2c(-c2cc(F)c3c(c2C)CCCO3)c1C(OC(C)(C)C)C(=O)O (centres unmarked) [Example 108, 2-(2-(6-(Benzyloxy)pyridin-3-yl)-7-(8-fluoro-5-methylchroman-6-yl)-5-methylpyrazolo[1,5-a]pyrimidin-6-yl)-2-tert-butoxyacetic acid, TFA salt] | < 0.1 µM | –
18 | Cc1nc2cc(-c3ccnc(F)c3)nn2c(-c2cc(F)c3c(c2C)CCCO3)c1C(OC(C)(C)C)C(=O)O (centres unmarked) [Example 109, 2-tert-Butoxy-2-(7-(8-fluoro-5-methylchroman-6-yl)-2-(2-fluoropyridin-4-yl)-5-methylpyrazolo[1,5-a]pyrimidin-6-yl)acetic acid, TFA salt] | 0.1 to 1 µM | 0.27 µM
19 | Cc1nc2cc(-c3cccc(C(=O)Nc4ccccc4)c3)nn2c(-c2cc(F)c3c(c2C)CCCO3)c1C(OC(C)(C)C)C(=O)O (centres unmarked) [Example 110, 2-tert-Butoxy-2-(7-(8-fluoro-5-methylchroman-6-yl)-5-methyl-2-(3-(phenylcarbamoyl)phenyl)pyrazolo[1,5-a]pyrimidin-6-yl)acetic acid, TFA salt] | 0.1 to 1 µM | –
20 | Cc1nc2cc(-c3cccc(C(=O)NCc4ccccc4)c3)nn2c(-c2cc(F)c3c(c2C)CCCO3)c1C(OC(C)(C)C)C(=O)O (centres unmarked) [Example 111, 2-(2-(3-(Benzylcarbamoyl)phenyl)-7-(8-fluoro-5-methylchroman-6-yl)-5-methylpyrazolo[1,5-a]pyrimidin-6-yl)-2-tert-butoxyacetic acid, TFA salt] | 0.1 to 1 µM | –
21 | Cc1nc2cc(-c3ccc(Oc4ccccc4)cc3)nn2c(-c2ccc3c(c2)CCCO3)c1C(OC(C)(C)C)C(=O)O (centres unmarked) [Example 112, 2-tert-Butoxy-2-(7-(chroman-6-yl)-5-methyl-2-(4-phenoxyphenyl)pyrazolo[1,5-a]pyrimidin-6-yl)acetic acid, TFA salt] | 0.1 to 1 µM | –
22 | Cc1nc2cc(-c3ccc4c(c3)CCCO4)nn2c(-c2ccc3c(c2)CCCO3)c1C(OC(C)(C)C)C(=O)O (centres unmarked) [Example 113, 2-tert-Butoxy-2-(2,7-di(chroman-6-yl)-5-methylpyrazolo[1,5-a]pyrimidin-6-yl)acetic acid, TFA salt] | 0.1 to 1 µM | 0.11 µM
23 | Cc1cccc(-c2cc3nc(C)c(C(OC(C)(C)C)C(=O)O)c(-c4ccc5c(c4)CCCO5)n3n2)c1 (centres unmarked) [Example 114, 2-tert-Butoxy-2-(7-(chroman-6-yl)-5-methyl-2-m-tolylpyrazolo[1,5-a]pyrimidin-6-yl)acetic acid, TFA salt] | 0.1 to 1 µM | –
24 | Cc1ccccc1-c1cccc(-c2cc3nc(C)c([C@H](OC(C)(C)C)C(=O)O)c(-c4cc(F)c5c(c4C)CCCO5)n3n2)c1 [Example 115, (2S)-2-(tert-Butoxy)-2-(7-(8-fluoro-5-methylchroman-6-yl)-5-methyl-2-(2′-methyl-[1,1′-biphenyl]-3-yl)pyrazolo[1,5-a]pyrimidin-6-yl)acetic acid] | < 0.1 µM | 0.02 µM
25 | COc1ccccc1-c1cccc(-c2cc3nc(C)c([C@H](OC(C)(C)C)C(=O)O)c(-c4cc(F)c5c(c4C)CCCO5)n3n2)c1 [Example 116, (2S)-2-(tert-Butoxy)-2-(7-(8-fluoro-5-methylchroman-6-yl)-2-(2′-methoxy-[1,1′-biphenyl]-3-yl)-5-methylpyrazolo[1,5-a]pyrimidin-6-yl)acetic acid] | < 0.1 µM | –
26 | COc1ccncc1-c1cccc(-c2cc3nc(C)c([C@H](OC(C)(C)C)C(=O)O)c(-c4cc(F)c5c(c4C)CCCO5)n3n2)c1 [Example 117, (2S)-2-(tert-Butoxy)-2-(7-(8-fluoro-5-methylchroman-6-yl)-2-(3-(4-methoxypyridin-3-yl)phenyl)-5-methylpyrazolo[1,5-a]pyrimidin-6-yl)acetic acid] | < 0.1 µM | –
27 | Cc1nc2cc(-c3cccc(-c4ccccc4F)c3)nn2c(-c2cc(F)c3c(c2C)CCCO3)c1[C@H](OC(C)(C)C)C(=O)O [Example 118, (2S)-2-(tert-Butoxy)-2-(7-(8-fluoro-5-methylchroman-6-yl)-2-(2′-fluoro-[1,1′-biphenyl]-3-yl)-5-methylpyrazolo[1,5-a]pyrimidin-6-yl)acetic acid] | < 0.1 µM | –
